compound,measurement,setting,value
FC(F)C(F)(F)OCC(F)(F)F,boiling point,,56.2 °C
same,log10 vapour pressure (mmHg),,2.33
C=CC(=O)OCCCCCCCC,log10 vapour pressure (mmHg),,-0.994
same,ready biodegradability,,readily biodegradable
C1CCC(OC2CCCCC2)CC1,boiling point,,242 °C
same,melting point,,-36 °C
Clc1cc(Cl)c2c(c1Cl)Oc1c(Cl)cc(Cl)c(Cl)c1O2,log10 vapour pressure (mmHg),,-10.3
same,melting point,,238 °C
CCCN(CCOc1c(Cl)cc(Cl)cc1Cl)C(=O)n1ccnc1,log10 Koc (L/kg),,2.7
same,log10 vapour pressure (mmHg),,-5.95
same,melting point,,48 °C
C=CCCC(=O)O,boiling point,,188 °C
same,melting point,,-22.5 °C
Oc1c(I)cc(I)cc1I,melting point,,160 °C
CCCCCCC(CCCCCC)CCCCCC,melting point,,-28.3 °C
CCOC(=O)C(C)[N+](=O)[O-] (configuration not stated),boiling point,,190 °C
CCC(CC)CC,boiling point,,93.5 °C
same,log10 biodegradation half-life (days),,0.602
same,log10 vapour pressure (mmHg),,1.76
same,melting point,,-119 °C
COc1cc(CC(=O)O)ccc1O,melting point,,144 °C
CCCO,boiling point,,97.2 °C
same,log10 Henry constant (atm·m³/mol),,-5.13
same,log10 vapour pressure (mmHg),,1.32
same,ready biodegradability,,readily biodegradable
CC(C)COC(=O)C(=O)OCC(C)C,boiling point,,229 °C
Cc1c(C)c(C)c(N)c(C)c1C,boiling point,,278 °C
same,melting point,,152 °C
COc1ccccc1Cl,boiling point,,198 °C
same,log10 vapour pressure (mmHg),,-0.623
same,melting point,,-26.8 °C
CCOC(=O)CCN(Cc1ccccc1)SN(C)C(=O)O/N=C(/C)SC,log10 vapour pressure (mmHg),,-7.46
same,melting point,,47 °C
CCOC(OCC)c1ccco1,boiling point,,192 °C
O=C(Nc1ccccc1)C(=O)Nc1ccccc1,melting point,,254 °C
N=C(N)c1ccc(N)cc1,melting point,,182 °C
Cc1cccc(C)c1NC(=O)CN(CC(=O)O)CC(=O)O,melting point,,202 °C
FCCCCCCCl,boiling point,,168 °C
O=C(O)c1ccc([N+](=O)[O-])cc1[N+](=O)[O-],melting point,,182 °C
CC(=O)Oc1c[nH]c2ccccc12,melting point,,129 °C
CC(C)N=C=NC(C)C,boiling point,,147 °C
COc1ccc(C)c(N)c1,boiling point,,253 °C
same,melting point,,47 °C
c1ccc(CNCc2ccccc2)cc1,log10 vapour pressure (mmHg),,-3.1
same,melting point,,-26 °C
COc1ccc2c3c1O[C@H]1[C@@H](O)C=C[C@H]4[C@@H](C2)N(C)CC[C@@]341,melting point,,158 °C
CN(C)CCCNc1c2ccccc2nc2cccc([N+](=O)[O-])c12,melting point,,134 °C
O=c1c(O)c(-c2ccc(O)c(O)c2)oc2cc(O)cc(O)c12,melting point,,316 °C
c1ccc(COP(OCc2ccccc2)OCc2ccccc2)cc1,ready biodegradability,,readily biodegradable
CC(=O)c1cccc(C)c1,boiling point,,220 °C
Clc1ccc(-c2c(Cl)ccc(Cl)c2Cl)c(Cl)c1,log10 biotransformation half-life (days),fish,2.61
CCCCC(C)(C)O,boiling point,,143 °C
same,log10 vapour pressure (mmHg),,0.317
CCN(CC)C(=O)CC(C)C,boiling point,,211 °C
Cc1cc2ccccc2nc1C,boiling point,,263 °C
same,melting point,,68.5 °C
Clc1cccc(Cl)c1-c1c(Cl)cccc1Cl,log10 Henry constant (atm·m³/mol),,-3.7
same,log10 Koc (L/kg),,4.9
same,log10 BCF,fish,3.85
COc1c2ccoc2cc2oc(C)cc(=O)c12,melting point,,144 °C
CC=CC(C)C(C)C=CC (configuration not stated),boiling point,,154 °C
same,melting point,,-64.8 °C
CC[B]CC,boiling point,,112 °C
same,melting point,,-56.3 °C
CNC(=O)N(C)c1nnc(C(F)(F)F)s1,melting point,,136 °C
NCCCC(N)C(=O)O (configuration not stated),melting point,,140 °C
O=C(O)c1cccc(C(F)(F)F)c1,boiling point,,238 °C
same,melting point,,106 °C
CCC(C)=NNc1ccc([N+](=O)[O-])cc1[N+](=O)[O-],melting point,,117 °C
Cc1ccc([N+](=O)[O-])c(Cl)c1,melting point,,24 °C
CC1=C(C(=O)Nc2ccccc2)CCCO1,melting point,,110 °C
COC(=O)C=CC(=O)OC,ready biodegradability,,readily biodegradable
Brc1ccc2[nH]ccc2c1,melting point,,91 °C
Clc1cc(Cl)c(Cl)c(-c2cc(Cl)c(Cl)c(Cl)c2Cl)c1,log10 Henry constant (atm·m³/mol),,-5.89
same,log10 biotransformation half-life (days),fish,2.51
CC(=O)Oc1cccnc1,ready biodegradability,,readily biodegradable
CC(C)Nc1nc(Cl)nc(NC(C)C)n1,log10 Koc (L/kg),,2.4
same,log10 vapour pressure (mmHg),,-6.88
same,melting point,,213 °C
same,ready biodegradability,,not readily biodegradable
N#CO,log10 vapour pressure (mmHg),,2.91
same,melting point,,-86 °C
Cc1ccc2ncccc2c1,boiling point,,259 °C
same,log10 vapour pressure (mmHg),,-2.19
same,melting point,,-22 °C
Brc1nccs1,boiling point,,171 °C
CC1(C)CC[C@]2(C)CC=C3[C@]4(C)CC[C@H]5C(C)(C)[C@@H](O)CC[C@]5(C)[C@H]4CC[C@@]3(C)[C@@H]2C1,melting point,,284 °C
COc1ccc2c3c1O[C@H]1[C@@H](O)C=C[C@H]4[C@@H](C2)[N@@+](C)([O-])CC[C@@]341,melting point,,232 °C
CCC(C1CCCCC1)C1CCCCC1,boiling point,,284 °C
same,melting point,,-23.5 °C
CCn1ccnc1,boiling point,,208 °C
Cc1ccnc(C)n1,boiling point,,150 °C
same,melting point,,-4 °C
O=[N+]([O-])c1cccc2cccnc12,melting point,,90 °C
CC(C)=CCC[C@@H](C)[C@H]1CC[C@@]2(C)C3=C(CC[C@]12C)[C@@]1(C)CC[C@H](O)C(C)(C)[C@@H]1CC3,melting point,,140 °C
Cc1cccc(C(=O)O)c1C,melting point,,146 °C
Cc1c(O)cc2c(c1C)OC(C)(CCCC(C)CCCC(C)CCCC(C)C)CC2 (configuration not stated),melting point,,-3 °C
COc1cc2c(cc1O)C(Cc1ccc(OC)c(OC)c1)N(C)CC2 (configuration not stated),melting point,,127 °C
CN(C)CCC#N,boiling point,,173 °C
CCCc1cc(C(N)=S)ccn1,melting point,,137 °C
CCC(C)C(=O)NC1CCC(=O)N(CCc2ccccc2)C1=O (configuration not stated),melting point,,108 °C
CNC(=O)CC(C)=O,ready biodegradability,,readily biodegradable
